Test results published in patent US20090318479A1, “SUBSTITUTED RING FUSED AZINES AND THEIR USE IN CANCER THERAPY” (Auckland Uniservices Limited, priority 2006, published 2009).
Like-named read-outs stand apart in the source and are kept apart here.

What was measured:
[1] = system: NZOV11 human ovarian cell line; assay: restoration of p53 function: G1-phase arrest after irradiation plus paclitaxel, flow cytometry; assay type: cell-based; conditions: 9 Gray plus 200 nM paclitaxel, 24 hours; for AC50: NZOV11, p53 mutated at position 248, G1 proportion restored to (a+b)/2, read-out: AC-50% (concentration of drug that restores the G1-phase proportion of the cultured cells); for Activity: NZOV11, p53 mutated at position 248 (arginine to glutamine)
Excerpt: Description of the in vitro assay: This protocol employs a novel assay that was used to measure the restoration of one of the principal p53 functions, that of regulating entry into S-phase (DNA replication) of the cell division cycle. Without being bound to any specific understanding, it is thought that these compounds may act to restore the known ability of p53 to induce cell cycle arrest in the G1-phase of the cell division cycle through induction of the p21^WAF1 protein in response to DNA damage (Levine. Cell 1997, 88, 323-31). Logarithmic phase cultures of tumour cell lines are irradiated in the presence of an inhibitor of cell division (to prevent the generation of G1-phase cells by cell division), and then allowed to grow for approximately one cell division time. If p53 function is present it will inhibit the progression of cells from the G1-phase to the S-phase of the cell division cycle, as a consequence of induction of the p21^WAF1 protein. If p53 function is absent there will be little or no cells in the G1-phase of the cell division cycle at the end of the incubation. […] The ability of an individual drug to restore p53 function is therefore evaluated against a positive control of non-irradiated cells and a negative control of cells that have been treated with a combination of radiation and a mitotic inhibitor.
Logarithmic phase cultures of tumour cell lines are plated in insulin-transferrin-selenite growth medium on 100 mm plates (10 ml) at a density of 10^4 cells/ml, using the standard cell culture conditions that are established in this laboratory (Marshall et al., Oncol Res 1994, 5, 301-9). The test compound is added to some cultures at a range of concentrations up to 20 μM. The anticancer drug paclitaxel is used as an inhibitor of cell division and is added to some cultures at a concentration of 200 nM. Cultures are irradiated where indicated at a dose of 9 Gray. Following irradiation, cultures are incubated at 37° C. for 24 hours, the cells harvested, washed once and fixed overnight in 100% methanol at −20° C. at a density of 5×10^5 cells/ml. Cells are rehydrated by washing in phosphate buffered saline with 2% foetal bovine serum, then incubated with RNAase A (0.25 mg/ml) at 37° C. for 30 min. Cells are then washed and resuspended in phosphate buffered saline containing 0.1 mM EDTA and 25 μg/ml propidium iodide. Cycle analysis (red fluorescence) is performed using a Becton Dickinson (Mountain View, Calif.) FACScan flow cytometer. Cellular DNA content profiles are analyzed using Modfit software (Verity Software House, Inc.) to provide estimates of the proportions of G1-, S- and G2/M-phase cells, and of other cellular material. By comparing the effects of irradiation and addition of paclitaxel separately, the assay provides evidence of non-specific inhibition of cell growth from changes in cell number, cell cycle distribution, and production of cellular debris.
Using cell cultures that have been both irradiated and treated with paclitaxel, the proportion of cells in G1-phase is plotted against the concentration of added test compound. Depending on the cell line, the proportion of G1-phase cells in the absence of added compound is generally less than 5% (defined as a). […] The 50%-activating concentration (AC-50%) of the test compound is defined as the concentration that restores the G1-phase proportion of the cultured cells to a value of (a+b)/2.
The NZOV11 human ovarian cell line, previously developed in this laboratory according to methods that have previously been published (Baguley B C et al., Eur J Cancer 1998, 34, 1086), was used in these studies to compare the activity of each of the drugs.

[2] = system: Saos-2 osteosarcoma cells; conditions: cited from earlier work
[3] = system: A375.S2 melanoma (mutated at p53 position 249); conditions: A375.S2 melanoma cells in nude mice; cited from earlier work
[4] = system: DLD-1 colon carcinoma (mutated at p53 position 241); conditions: DLD-1 colon carcinoma cells in nude mice; cited from earlier work
[5] = background statement; cited from earlier work
[6] = system: other cell lines with mutations in other parts of the p53 protein; assay: restoration of p53 function in other cell lines with other p53 mutations; assay type: cell-based; conditions: a number of other cell lines with mutations in other parts of the p53 protein
C57Bl mice = assay: maximum tolerated intraperitoneal single dose and signs of toxicity in mice; assay type: in vivo
Procedure: (§1) Pharmacological studies in mice: A further consideration in this project is whether effective plasma concentrations can be achieved in vivo without significant side-effects. C57Bl mice were maintained under standard conditions in accordance with institutional ethical guidelines. The maximum tolerated intraperitoneal single dose of compound 3 was determined by administering different doses of drug to mice and found to be 100 mg/kg. […] An effective analytical procedure for the determination of concentrations of 3 in mouse plasma was developed, using high performance liquid chromatography and detection by ion trap mass spectrometry. The method is broadly applicable to compounds in the series. Blood samples were obtained under terminal anesthesia either before or at 1, 2 and 4 hours after a single intraperitoneal dose of 100 mg/kg. Plasma was prepared and analyzed using the method developed above.

[7] = plasma concentrations after a single intraperitoneal dose; assay type: in vivo; conditions: C57Bl mice, single intraperitoneal 100 mg/kg, 1, 2 and 4 hours, FIG. 1
Procedure: Illustrates the in vivo plasma concentrations of compound 3 over time following a single intraperitoneal administration (100 mg/kg) to C57Bl mice.
as §1

[8] = system: NZM4 human tumour xenografts; assay: growth of NZM4 human tumour xenografts in immunodeficient (rag 1) mice; assay type: in vivo
Procedure: Illustrates the growth curves for immunodeficient mice with NZM4 human tumour xenografts. Mice were either untreated (closed circles), treated with 2 Gray radiation alone (open circles) or treated with radiation combined with compound 3 (100 mg/kg per dose).
In vivo estimation of ability to restore p53 function: A further consideration in this project is to determine whether members of this series have the ability to inhibit the growth of human cell lines that contain mutant p53 protein. This consideration was addressed with the use of compound 3, for which in vitro evidence has been obtained for ability to restore p53 function (Table 2) and for which pharmacological evidence has been obtained for biologically relevant plasma concentrations in vivo in the absence of significant side-effects (FIG. 1). Immunodeficient (rag 1) mice were maintained under standard conditions in accordance with institutional ethical guidelines. Cells from the NZM4 cell line (Marshall E S et al., Eur J Cancer 1994; 30A: 1370-1376) were grown in culture and harvested. Mice were injected subcutaneously with 10^7 cells and tumours allowed to grow to a diameter of approximately 5 mm. Mice received whole-body irradiation of 2 Gray and were then administered compound 3 by intraperitoneal injection immediately after, and 1 and 2 days following, irradiation. […] Control animals received no treatment or were irradiated in the absence of drug administration.
Tumour growth was recorded three times weekly by measuring the minor and major dimensions of the tumour and tumour volumes were calculated as 0.52 times (minor dimension)^2 times (major dimension). Tumour volumes were normalized to the initial volume and plotted versus time. FIG. 2 illustrates the growth curves for immunodeficient mice with NZM4 human tumour xenografts. Mice were either untreated (closed circles), treated with 2 Gray radiation alone (open circles) or treated with radiation combined with compound 3 (100 mg/kg per dose). […]

Question: With `Cc1ccc2c(NCCC3CCCN3C)nc(-c3cc4ccccc4o3)nc2c1C.Cl.Cl` (centres unmarked) [Compound 79, 2-(1-Benzofuran-2-yl)-7,8-dimethyl-N-[2-(1-methyl-2-pyrrolidinyl)ethyl]-4-quinazolinamine dihydrochloride] as the compound, how does the AC50 ([1]; Homo sapiens) read?
Answer: Its AC50 is 7.5 µM.

Question: And the Activity [1]?
Answer: Its Activity is “Active”.

Question: What does the source list for `Cc1c(-c2nc(NCCCN(C)C)c3ccccc3n2)oc2ccccc12.Cl.Cl` [Compound 60, N^1,N^1-Dimethyl-N^3-[2-(3-methyl-1-benzofuran-2-yl)-4-quinazolinyl]-1,3-propanediamine dihydrochloride]?
Answer: AC50 ([1]; Homo sapiens): 18 µM; Activity [1]: Active

Question: Which results are given for `CN(C)CCCNc1nc(-c2cc3ccccc3s2)nc2ccccc12.Cl.Cl` [Compound 75, N^1-[2-(1-Benzothien-2-yl)-4-quinazolinyl]-N^3,N^3-dimethyl-1,3-propanediamine dihydrochloride]?
Answer: AC50 ([1]; Homo sapiens): 8 µM; Activity [1]: Active

Question: Which AC50 ([1]; Homo sapiens) does the source give for `CN(C)CCCNc1nc(-c2cc3ccccc3o2)nc2ccc([N+](=O)[O-])cc12` [Compound 29, N^1-[2-(1-Benzofuran-2-yl)-6-nitro-4-quinazolinyl]-N^3,N^3-dimethyl-1,3-propanediamine] here?
Answer: The AC50 was 12 µM.

Question: What about the Activity [1] of the same compound?
Answer: The Activity was “Active”.

Question: For `Cc1ccc2c(N(C)CCC(C)N)nc(-c3cc4ccccc4o3)nc2c1C.Cl.Cl` (centres unmarked) [Compound 58, N^1-[2-(1-Benzofuran-2-yl)-7,8-dimethyl-4-quinazolinyl]-3,N-dimethyl-1,3-propanediamine dihydrochloride], which AC50 ([1]; Homo sapiens) is on record?
Answer: Its AC50 is 2.7 µM.

Question: What about the Activity [1] of the same compound?
Answer: Its Activity is “Active”.

Question: Which “ability of mutant p53 protein to induce the cellular p21 gene” value ([2]; Saos-2 osteosarcoma cells) does the source give for `COc1ccc(/C=C/c2nc(NCCCN(C)C)c3ccccc3n2)cc1` [(i)] here?
Answer: Its value is “restored the ability of mutant p53 protein to induce the cellular p21 gene”.

Question: And the potency ([2]; background statement, no test named)?
Answer: Its potency is “not very potent”.

Question: And the “suppression of tumour growth” value [3]?
Answer: Its value is “able to suppress the growth”.

Question: And the “suppression of tumour growth” value [4]?
Answer: Its value is “able to suppress the growth”.

Question: And the chemical stability [5]?
Answer: The chemical stability was “chemically unstable”.

Question: Which Activity [1] does the source give for `CN(C)CCCNc1nc(-c2cc3ccccc3o2)nc2ccc(N)cc12.Cl.Cl` [Compound 30] here?
Answer: The Activity was “Active”.

Question: With `CN(C)CCCNc1cc(-c2cc3ccccc3o2)nc2ccccc12.Cl.Cl` [Compound 80, N^1-[2-(1-benzofuran-2-yl)-4-quinolinyl]-N^3,N^3-dimethyl-1,3-propanediamine dihydrochloride] as the compound, how does the AC50 ([1]; Homo sapiens) read?
Answer: The AC50 was 15 µM.

Question: And the Activity [1]?
Answer: Its Activity is “Active”.

Question: Which results are given for `CN(C)CCCNc1nc(-c2cc3ccccc3o2)nc2cc(C(F)(F)F)ccc12.Cl.Cl` [Compound 35, N^1-[2-(1-Benzofuran-2-yl)-7-(trifluoromethyl)-4-quinazolinyl]-N^3,N^3-dimethyl-1,3-propanediamine dihydrochloride]?
Answer: AC50 ([1]; Homo sapiens): 3.4 µM; Activity [1]: Active

Question: What does the source list for `Cc1cccc2c(NCCCN(C)C)nc(-c3cc4ccccc4o3)nc12.Cl.Cl` [Compound 45, N^1-[2-(1-Benzofuran-2-yl)-8-methyl-4-quinazolinyl]-N^3,N^3-dimethyl-1,3-propanediamine dihydrochloride]?
Answer: AC50 ([1]; Homo sapiens): 5.8 µM; Activity [1]: Active

Question: Which AC50 ([1]; Homo sapiens) does the source give for `CN(C)CCCNc1nc(-c2cc3ccccc3o2)nc2ccccc12.Cl.Cl` [Compound 3, N^1-[2-(1-benzofuran-2-yl)-4-quinazolinyl]-N^3,N^3-dimethyl-1,3-propanediamine dihydrochloride] here?
Answer: The AC50 was 8.5 µM.

Question: What about the Activity [1] of the same compound?
Answer: The Activity was “Active”.

Question: What about the “ability to restore p53 function” value [6] of the same compound?
Answer: The value was “able to restore p53 function”.

Question: What about the “maximum tolerated intraperitoneal single dose” value (C57Bl mice; single intraperitoneal dose) of the same compound?
Answer: Its value is 100 mg/kg.

Question: And the “signs of toxicity (weight loss, ruffling of fur, behavioral changes)” value (C57Bl mice; single intraperitoneal dose of 100 mg/kg)?
Answer: The value was “No signs of toxicity”.

Question: What about the achieved plasma concentrations [7] of the same compound?
Answer: Its achieved plasma concentrations is “comparable to the AC-50% value”.

Question: And the “time to reach three times the initial tumour volume” value ([8]; 2 Gray radiation together with compound, 100 mg/kg per dose intraperitoneal on days 0, 1 and 2 after irradiation)?
Answer: Its value is 17 days.

Question: What about the signs of toxicity ([8]; rag 1 mice, 2 Gray whole-body irradiation plus intraperitoneal compound immediately after and 1 and 2 days after) of the same compound?
Answer: Its signs of toxicity is “No signs of toxicity”.

Question: And the “tumour growth rate with drug alone compared with mice not treated with drug” value ([8]; rag1 mice, drug alone at the same schedule, no irradiation)?
Answer: Its value is “identical rate”.

Question: With `CN(C)CCCNc1nc(-c2cc3ccccc3o2)nc2ccc(N)cc12.Cl.Cl` [Compound 30, N^1-[2-(1-Benzofuran-2-yl)-N^4-[3-(dimethylamino)propyl]-4,6-quinazolinediaminedihydrochloride] as the compound, how does the AC50 [1] read?
Answer: Its AC50 is 9.5 µM.
